Measured values taken from US11230526B1, “Cylcoalkenyl derivatives useful as agonists of the GPR120 and/or GPR40 receptors” (Janssen Pharmaceutica NV, priority 2018, dated 2022).
Several values for one entry are separate records, joined by “and”; a condition that tells them apart may be missing. Equal values may be shown once.

Experiments:
Assay type in all cases: cell-based
human GPR40 = target: T1, human GPR40 (Homo sapiens, UniProt O14842); assay: GPR40 calcium flux assay, human GPR40; conditions: HEK293 cells stably expressing GPR40; table does not say human or rat
T1 construct: expressed in transfected cells
T1 sequence (O14842 whole entry): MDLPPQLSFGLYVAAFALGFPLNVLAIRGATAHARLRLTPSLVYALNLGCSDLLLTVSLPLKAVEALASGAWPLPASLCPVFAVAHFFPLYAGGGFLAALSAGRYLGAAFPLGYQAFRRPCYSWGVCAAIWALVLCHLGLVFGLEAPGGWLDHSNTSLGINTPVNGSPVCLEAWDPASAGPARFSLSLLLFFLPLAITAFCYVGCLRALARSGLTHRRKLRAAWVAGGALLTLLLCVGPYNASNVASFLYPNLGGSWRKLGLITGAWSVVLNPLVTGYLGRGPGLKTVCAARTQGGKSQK
Procedure, shortened: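 Cells preincubated 1 h at 37° C. in HBSS, 20 mM HEPES, 0.1% BSA, then Fluo 8 calcium dye 30 min at 37° C. and 15 min at room temperature.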

Human GPR120 short form [1] = target: T2, Human GPR120 short form (Homo sapiens, UniProt Q5NUL3); assay: Human GPR120 calcium flux assay, Procedure Calcium A (2500 cells/well)
T2 construct: expressed in transfected cells
T2 sequence (Q5NUL3 1-361): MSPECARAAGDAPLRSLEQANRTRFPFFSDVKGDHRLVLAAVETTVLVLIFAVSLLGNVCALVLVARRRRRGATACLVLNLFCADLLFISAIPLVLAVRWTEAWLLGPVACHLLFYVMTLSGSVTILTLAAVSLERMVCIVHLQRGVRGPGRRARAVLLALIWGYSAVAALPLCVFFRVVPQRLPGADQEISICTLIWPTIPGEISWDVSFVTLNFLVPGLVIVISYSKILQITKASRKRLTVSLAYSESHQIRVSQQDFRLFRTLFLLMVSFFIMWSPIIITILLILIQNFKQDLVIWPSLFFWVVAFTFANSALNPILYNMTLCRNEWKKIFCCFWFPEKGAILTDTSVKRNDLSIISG
Procedure, shortened: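 HEK293 cells stably expressing human GPR120 short isoform (NM_001195755.1), 2500 cells/well, serum-starved 1 h at 37 °C and loaded with Fluo-4 NW plus probenecid. FLIPR fluorescence read for 300 s after compound addition; response = Fmax−Fmin. EC50 from four-parameter concentration–response fit.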

Human GPR120 short form [2] = target: T2, Human GPR120 short form; assay: Human GPR120 calcium flux assay, Procedure Calcium B (4200 cells/well)
Procedure, shortened: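 Agonist EC50 came from a four-parameter fit of RFU (Fmax−Fmin) read over 300 s on FLIPR. Cells were HEK293 stably transfected with human GPR120 (NM_001195755.1) at 4200 per well, serum-starved 1 h and loaded with Fluo-4 NW dye with probenecid before ligand addition.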

`Cc1ccc(C2=C(COc3ccc(CCC(=O)O)cc3C)CCC2)cn1` [Compound 102, 3-(3-methyl-4-((2-(6-methylpyridin-3-yl)cyclopent-1-en-1-yl)methoxy)phenyl)Propanoic Acid] showed an EC50 (human GPR40) greater than 5000 nM, an EC50 (Human GPR120 short form [1]) of 781 nM and an EC50 (Human GPR120 short form [2]) of 134 nM.

Work on `Cc1c(CCC(=O)O)ccc(OCC2=C(c3ncccn3)CCC2)c1C` [Compound 105, 3-[2,3-dimethyl-4-[(2-pyrimidin-2-ylcyclopenten-1-yl)methoxy]phenyl]Propanoic Acid] yielded an EC50 (human GPR40) greater than 5000 nM, an EC50 (Human GPR120 short form [1]) of 1630 nM and an EC50 (Human GPR120 short form [2]) of 183 nM.

With `Cc1ccc(C2=C(COc3ccc(CCC(=O)O)c(C)c3C)CCC2)cc1C` [Compound 106, 3-(4-((2-(3,4-dimethylphenyl)cyclopent-1-en-1-yl)methoxy)-2,3-dimethylphenyl)Propanoic Acid] the EC50 (human GPR40) was greater than 5000 nM, the EC50 (Human GPR120 short form [1]) was 572 nM and the EC50 (Human GPR120 short form [2]) was 567 nM.

For `Cc1c(CCC(=O)O)ccc(OCC2=C(c3cccnc3)CCC2)c1C` [Compound 108, 3-[2,3-dimethyl-4-[[2-(3-pyridyl)cyclopenten-1-yl]methoxy]phenyl]Propanoic Acid], the EC50 (human GPR40) was greater than 5000 nM, the EC50 (Human GPR120 short form [1]) was 1050 nM and the EC50 (Human GPR120 short form [2]) was 233 nM.

For `Cc1ccc(C2=C(COc3c(F)cc(CCC(=O)O)cc3F)CCC2)cc1[N+](=O)[O-]` [Compound 109, 3-(3,5-difluoro-4-((2-(4-methyl-3-nitrophenyl)cyclopent-1-en-1-yl)methoxy)phenyl)Propanoic Acid], the EC50 (human GPR40) was greater than 5000 nM, the EC50 (Human GPR120 short form [1]) was 959 nM and the EC50 (Human GPR120 short form [2]) was 1290 nM.

`Cc1c(CCC(=O)O)ccc(OCC2=C(c3ccccc3Br)CCC2)c1C` [Compound 111, 3-[4-[[2-(2-bromophenyl)cyclopenten-1-yl]methoxy]-2,3-dimethyl-phenyl]Propanoic Acid] gave an EC50 (human GPR40) greater than 5000 nM, an EC50 (Human GPR120 short form [1]) of 777 nM and an EC50 (Human GPR120 short form [2]) of 687 nM.

Compound `O=C(O)CCc1c(F)c(F)c(OCC2=C(c3ccc(Cl)cc3)CCC2)c(F)c1F` [Compound 122, 3-[4-[[2-(4-chlorophenyl)cyclopenten-1-yl]methoxy]-2,3,5,6-tetrafluoro-phenyl]Propanoic Acid] has an EC50 (human GPR40) greater than 5000 nM, an EC50 (Human GPR120 short form [1]) of 453 nM and an EC50 (Human GPR120 short form [2]) of 247 nM.

For `Cc1c(CCC(=O)O)ccc(OCC2=C(c3ccccc3F)CCC2)c1C` [Compound 124, 3-[4-[[2-(2-fluorophenyl)cyclopenten-1-yl]methoxy]-2,3-dimethyl-phenyl]Propanoic Acid], the EC50 (human GPR40) was greater than 5000 nM, the EC50 (Human GPR120 short form [1]) was 308 nM and the EC50 (Human GPR120 short form [2]) was 67 nM.

In the case of `Cc1cc(OCC2=C(c3ccc(Cl)cc3)CCC2)ccc1CCC(=O)O` [Compound 131, 3-[4-[[2-(4-chlorophenyl)cyclopenten-1-yl]methoxy]-2-methyl-phenyl]Propanoic Acid], the EC50 (human GPR40) is reported as 1990 nM, the EC50 (Human GPR120 short form [1]) is reported as 533 nM and the EC50 (Human GPR120 short form [2]) is reported as 118 nM.

`Cc1ccccc1C1=C(COc2ccc(CCC(=O)O)c(C)c2C)CCC1` [Compound 132, 3-[2,3-dimethyl-4-[[2-(o-tolyl)cyclopenten-1-yl]methoxy]phenyl]Propanoic Acid] showed an EC50 (human GPR40) greater than 5000 nM, an EC50 (Human GPR120 short form [1]) of 1090 nM and an EC50 (Human GPR120 short form [2]) of 409 nM.

Work on `Cc1c(CCC(=O)O)ccc(OCC2=C(c3ccc(Cl)cc3Cl)CCC2)c1C` [Compound 133, 3-[4-[[2-(2,4-dichlorophenyl)cyclopenten-1-yl]methoxy]-2,3-dimethyl-phenyl]Propanoic Acid] yielded an EC50 (human GPR40) greater than 5000 nM, an EC50 (Human GPR120 short form [1]) of 682 nM and an EC50 (Human GPR120 short form [2]) of 344 nM.

Compound `Cc1ccc(C2=C(COc3ccc(CCC(=O)O)c(C)c3C)CCC2)cc1N` [Compound 134, 3-(4-((2-(3-amino-4-methylphenyl)cyclopent-1-en-1-yl)methoxy)-2,3-dimethylphenyl)Propanoic Acid] has an EC50 (human GPR40) greater than 5000 nM, an EC50 (Human GPR120 short form [1]) of 2000 nM and an EC50 (Human GPR120 short form [2]) of 1430 nM.

In the case of `COc1cccc(C2=C(COc3ccc(CCC(=O)O)c(C)c3C)CCC2)c1` [Compound 141, 3-[4-[[2-(3-methoxyphenyl)cyclopenten-1-yl]methoxy]-2,3-dimethyl-phenyl]Propanoic Acid], the EC50 (human GPR40) is reported as greater than 5000 nM, the EC50 (Human GPR120 short form [1]) is reported as 1060 nM and the EC50 (Human GPR120 short form [2]) is reported as 256 nM.

Work on `Cc1c(CCC(=O)O)ccc(OCC2=C(c3ccccn3)CCC2)c1C` [Compound 147, 3-[2,3-dimethyl-4-[[2-(2-pyridyl)cyclopenten-1-yl]methoxy]phenyl]Propanoic Acid] yielded an EC50 (human GPR40) greater than 5000 nM, an EC50 (Human GPR120 short form [1]) of 1010 nM and an EC50 (Human GPR120 short form [2]) of 336 nM.

`O=C(O)CCc1ccc(OCC2=C(c3ccc(Cl)cc3)CCC2)c(F)c1` [Compound 149, 3-[4-[[2-(4-chlorophenyl)cyclopenten-1-yl]methoxy]-3-fluoro-phenyl]Propanoic Acid] gave an EC50 (human GPR40) greater than 10000 nM, an EC50 (Human GPR120 short form [1]) of 128 nM and an EC50 (Human GPR120 short form [2]) of 24 nM.

`O=C(O)CCc1ccc(OCC2=C(c3ccc(Cl)cc3)CCC2)cc1` [Compound 153, 3-[4-[[2-(4-chlorophenyl)cyclopenten-1-yl]methoxy]phenyl]Propanoic Acid] was tested, and the EC50 (human GPR40) was 2950 nM, the EC50 (Human GPR120 short form [1]) was 319 nM and the EC50 (Human GPR120 short form [2]) was 23 nM.

With `Cc1c(CCC(=O)O)ccc(OCC2=C(c3ccc(Cl)nc3)CCC2)c1C` [Compound 158, 3-(4-((2-(6-chloropyridin-3-yl)cyclopent-1-en-1-yl)methoxy)-2,3-dimethylphenyl)Propanoic Acid] the EC50 (human GPR40) was greater than 5000 nM, the EC50 (Human GPR120 short form [1]) was 234 nM and the EC50 (Human GPR120 short form [2]) was 133 nM.

`Cc1cc(CCC(=O)O)ccc1OCC1=C(c2ccc(Cl)c(F)c2)CCC1` [Compound 159, 3-(4-((2-(4-chloro-3-fluorophenyl)cyclopent-1-en-1-yl)methoxy)-3-methylphenyl)Propanoic Acid] showed an EC50 (human GPR40) greater than 5000 nM, an EC50 (Human GPR120 short form [1]) of 44 nM and an EC50 (Human GPR120 short form [2]) of 26 nM.

For `Cc1cc(CCC(=O)O)ccc1OCC1=C(c2ccc(Cl)cc2)CCC(F)(F)C1` [Compound 467, 3-(4-((4′-chloro-4,4-difluoro-3,4,5,6-tetrahydro-[1,1′-biphenyl]-2-yl)methoxy)-3-methylphenyl)Propanoic Acid], the EC50 (human GPR40) was greater than 5000 nM, the EC50 (Human GPR120 short form [1]) was 199 nM and the EC50 (Human GPR120 short form [2]) was 40 nM.

In the case of `Cc1c(CCC(=O)O)ccc(OCC2=C(c3ccc(Cl)cc3)CCC(F)(F)C2)c1C` [Compound 468, 3-[4-[[2-(4-chlorophenyl)-5,5-difluoro-cyclohexen-1-yl]methoxy]-2,3-dimethyl-phenyl]Propanoic Acid], the EC50 (human GPR40) is reported as greater than 5000 nM, the EC50 (Human GPR120 short form [1]) is reported as 261 nM and the EC50 (Human GPR120 short form [2]) is reported as 56 nM and 54 nM.

With `Cc1c(CCC(=O)O)ccc(OCC2=C(c3ccccc3)CCCC2)c1C` [Compound 472, 3-[2,3-dimethyl-4-[(2-phenylcyclohexen-1-yl)methoxy]phenyl]Propanoic Acid] the EC50 (human GPR40) was greater than 5000 nM, the EC50 (Human GPR120 short form [1]) was 406 nM and the EC50 (Human GPR120 short form [2]) was 32 nM.

Compound `Cc1c(CCC(=O)O)ccc(OCC2=C(c3ccc(Cl)cc3)CCCC2)c1C` [Compound 474, 3-[4-[[2-(4-chlorophenyl)cyclohexen-1-yl]methoxy]-2,3-dimethyl-phenyl]Propanoic Acid] has an EC50 (human GPR40) greater than 5000 nM, an EC50 (Human GPR120 short form [1]) of 428 nM and an EC50 (Human GPR120 short form [2]) of 79 nM.

With `O=C(O)CCc1c(F)c(F)c(OCC2=C(c3ccc(Cl)cc3)CCCC2)c(F)c1F` [Compound 479, 3-[4-[[2-(4-chlorophenyl)cyclohexen-1-yl]methoxy]-2,3,5,6-tetrafluoro-phenyl]Propanoic Acid] the EC50 (human GPR40) was greater than 5000 nM, the EC50 (Human GPR120 short form [1]) was 958 nM and the EC50 (Human GPR120 short form [2]) was 73 nM.

With `Cc1cc(CCC(=O)O)ccc1OCC1=C(c2ccc(Cl)cc2)CCCC1` [Compound 483, 3-[4-[[2-(4-chlorophenyl)cyclohexen-1-yl]methoxy]-3-methyl-phenyl]Propanoic Acid] the EC50 (human GPR40) was 3530 nM, the EC50 (Human GPR120 short form [1]) was 255 nM and the EC50 (Human GPR120 short form [2]) was 52 nM.

`Cc1ccc(C2=C(COc3c(F)cc(CCC(=O)O)cc3F)CCCC2)cc1F` [Compound 493, 3-[3,5-difluoro-4-[[2-(3-fluoro-4-methyl-phenyl)cyclohexen-1-yl]methoxy]phenyl]Propanoic Acid] gave an EC50 (human GPR40) greater than 5000 nM, an EC50 (Human GPR120 short form [1]) of 123 nM and an EC50 (Human GPR120 short form [2]) of 37 nM.

In the case of `Cc1ccc(C2=C(COc3ccc(CCC(=O)O)c(F)c3F)CCCC2)cc1F` [Compound 494, 3-[2,3-difluoro-4-[[2-(3-fluoro-4-methyl-phenyl)cyclohexen-1-yl]methoxy]phenyl]Propanoic Acid], the EC50 (human GPR40) is reported as greater than 5000 nM, the EC50 (Human GPR120 short form [1]) is reported as 117 nM and the EC50 (Human GPR120 short form [2]) is reported as 37 nM.

In the case of `Cc1ccc(C2=C(COc3ccc(CCC(=O)O)c(C)c3C)CCCC2)cc1F` [Compound 496, 3-[4-[[2-(3-fluoro-4-methyl-phenyl)cyclohexen-1-yl]methoxy]-2,3-dimethyl-phenyl]Propanoic Acid], the EC50 (human GPR40) is reported as greater than 5000 nM, the EC50 (Human GPR120 short form [1]) is reported as 297 nM and the EC50 (Human GPR120 short form [2]) is reported as 81 nM.

For `O=C(O)CCc1ccc(OCC2=C(c3ccc(Cl)cc3)CCC(F)(F)C2)c(F)c1F` [Compound 503, 3-[4-[[2-(4-chlorophenyl)-5,5-difluoro-cyclohexen-1-yl]methoxy]-2,3-difluoro-phenyl]Propanoic Acid], the EC50 (human GPR40) was greater than 5000 nM, the EC50 (Human GPR120 short form [1]) was 493 nM and the EC50 (Human GPR120 short form [2]) was 97 nM.

With `Cc1c(CCC(=O)O)ccc(OCC2=C(c3cccc(Cl)c3)CCCC2)c1C` [Compound 509, 3-[4-[[2-(3-chlorophenyl)cyclohexen-1-yl]methoxy]-2,3-dimethyl-phenyl]Propanoic Acid] the EC50 (human GPR40) was greater than 10000 nM, the EC50 (Human GPR120 short form [1]) was 963 nM and the EC50 (Human GPR120 short form [2]) was 414 nM.
